Measured values as given in patent publication US10875851B2, “Factor XIIa inhibitors” (Merck Sharp & Dohme Corp., priority 2016, dated 2020).

Molecular target: human Factor XIIa (Homo sapiens (Human), UniProt P00748)
Test: Factor XIIa Assay
Type: biochemical
Details: purified human Factor XIIa 500 pM; substrate n-Acetyl-Lys-Pro-Arg-AFC 100 μM; pH 7.4; read-out: FXIIa IC50
Procedure: The effectiveness of a compound of the present invention as an inhibitor of Coagulation Factor XIIa can be determined using a relevant purified serine protease, and an appropriate synthetic substrate. The rate of hydrolysis of the chromogenic or fluorogenic substrate by the relevant serine protease was measured both in the absence and presence of compounds of the present invention. Assays were conducted at room temperature or at 37° C. […] A decrease in the rate of fluorescence change in the presence of inhibitor is indicative of enzyme inhibition. Such methods are known to one skilled in the art.
Factor XIIa activity determinations were made in 50 mM HEPES buffer containing 150 mM NaCl, 5 mM CaCl2, and 0.1% PEG 8000 (polyethylene glycol; JT Baker or Fisher Scientific) at pH 7.4. Determinations were made using purified human Factor XIIa at a final concentration of 500 pM (Sekisui Diagnostics) and the synthetic substrate, n-Acetyl-Lys-Pro-Arg-AFC, TFA salt (Sigma #C6608) at a concentration of 100 μM.
Times required to achieve equilibration between enzyme and inhibitor were determined in control experiments. Initial velocities of product formation in the absence (Vo) or presence of inhibitor (Vi) were measured. IC50 was determined as the concentration of I yielding Vi=Vo/2.

Chain of human Factor XIIa (P00748 373-615): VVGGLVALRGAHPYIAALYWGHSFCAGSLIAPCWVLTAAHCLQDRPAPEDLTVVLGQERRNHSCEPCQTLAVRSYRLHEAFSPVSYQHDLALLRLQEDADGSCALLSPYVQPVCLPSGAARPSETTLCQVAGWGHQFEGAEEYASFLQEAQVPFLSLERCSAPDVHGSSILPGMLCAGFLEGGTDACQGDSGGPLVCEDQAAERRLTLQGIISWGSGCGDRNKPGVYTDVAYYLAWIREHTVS

Point of comparison: `COc1cc(CNC(=O)[C@@H]2CN(C(=O)Oc3ccc4ccccc4c3Cl)CCN2C(=O)[C@@H](CCCCN(C)C)NC2CCC(CN)CC2)ccc1CN` (stereo partly drawn) [Example 92, 1-chloronaphthalen-2-yl (3S)-4-{N^2-[4-(aminomethyl)cyclohexyl]-N^6,N^6-dimethyl-D-lysyl}-3-{[4-(aminomethyl)-3-methoxybenzyl]carbamoyl}piperazine-1-carboxylate], IC50 2.9 nM. Against it:
- COC(N)c1cccc(OC(=O)N2CCN(C(=O)[C@@H](CCCCNS(C)(=O)=O)NC3CCC4(CC3)CCN(Cc3ccccc3)C4)[C@H](C(=O)NCc3cccs3)C2)c1 (stereo partly drawn) [Example 75, 3-[amino(methoxy)methyl]phenyl (3S)-4-[N^2-(2-benzyl-2-azaspiro[4.5]dec-8-yl)-N^6-(methylsulfonyl)-D-lysyl]-3-[(thiophen-2-ylmethyl)carbamoyl]piperazine-1-carboxylate] — 2-fold higher, 5.7 nM
- COc1cc(CNC(=O)[C@@H]2CN(C(=O)Oc3cccc(CN)c3)CCN2C(=O)[C@@H](CCCCNS(C)(=O)=O)NC2CCC3(CC2)CCN(Cc2ccccc2)C3)ccc1CN (stereo partly drawn) [Example 76, 3-(aminomethyl)phenyl (3S)-3-{[4-(aminomethyl)-3-methoxybenzyl]carbamoyl}-4-[N^2-(2-benzyl-2-azaspiro[4.5]dec-8-yl)-N^6= (methylsulfonyl)-D-lysyl]piperazine-1-carboxylate] — within 1.5-fold, 4.1 nM
- O=C(NCc1cccs1)[C@@H]1CN(C(=O)Oc2ccccc2Cl)CCN1C(=O)[C@@H](CCCCN1CCCS1(=O)=O)NC1CCCCC1 [Example 77, 2-chlorophenyl (3S)-4-[N-cyclohexyl-6-(1,1-dioxidoisothiazolidin-2-yl)-D-norleucyl]-3-[(thiophen-2-ylmethyl)carbamoyl]piperazine-1-carboxylate] — 1.6-fold higher, 4.6 nM
- CN(C)CCCC[C@@H](NC1CCC2(CC1)CCN(Cc1ccccc1)C2)C(=O)N1CCN(C(=O)Oc2ccccc2Cl)C[C@H]1C(=O)NCc1cccs1 (stereo partly drawn) [Example 78, 2-chlorophenyl (3S)-4-[N^2-(2-benzyl-2-azaspiro[4.5]dec-8-yl)-N^6,N^6-dimethyl-D-lysyl]-3-[(thiophen-2-ylmethyl)carbamoyl]piperazine-1-carboxylate] — 3.2-fold lower, 0.9 nM
- CS(=O)(=O)NCCCC[C@@H](NC1CCC2(CC1)CCN(Cc1ccccc1)C2)C(=O)N1CCN(C(=O)Oc2cccc3c2CCNC3)C[C@H]1C(=O)NCc1cccs1 (stereo partly drawn) [Example 81, 1,2,3,4-tetrahydroisoquinolin-5-yl (3S)-4-[N^2-(2-benzyl-2-azaspiro[4.5]dec-8-yl)-N^6-(methylsulfonyl)-D-lysyl]-3-[(thiophen-2-ylmethyl)carbamoyl]piperazine-1-carboxylate] — within 1.5-fold, 3.4 nM
- CS(=O)(=O)NCCCC[C@@H](NC1CCC2(CC1)CCN(Cc1ccccc1)C2)C(=O)N1CCN(C(=O)Oc2cccc(CN)c2Cl)C[C@H]1C(=O)NCc1cccs1 (stereo partly drawn) [Example 82, 3-(aminomethyl)-2-chlorophenyl (3S)-4-[N^2-(2-benzyl-2-azaspiro[4.5]dec-8-yl)-N^6-(methylsulfonyl)-D-lysyl]-3-[(thiophen-2-ylmethyl)carbamoyl]piperazine-1-carboxylate] — within 1.5-fold, 2.1 nM
- COc1cc(CNC(=O)[C@@H]2CN(C(=O)Oc3ccccc3Cl)CCN2C(=O)[C@@H](CCCCNS(C)(=O)=O)NC2CCC3(CC2)CCN(Cc2ccccc2)C3)ccc1CN (stereo partly drawn) [Example 85, 2-chlorophenyl (3S)-3-{[4-(aminomethyl)-3-methoxybenzyl]carbamoyl}-4-[N^2-(2-benzyl-2-azaspiro[4.5]dec-8-yl)-N^6-(methylsulfonyl)-D-lysyl]piperazine-1-carboxylate] — 2.9-fold higher, 8.3 nM
- COc1cc(CNC(=O)[C@@H]2CN(C(=O)Oc3ccc4ccccc4c3Cl)CCN2C(=O)[C@@H](CCCCN(C)C)N(C)C2CCC3(CC2)CCN(Cc2ccccc2)C3)ccc1CN (stereo partly drawn) [Example 87, 1-chloronaphthalen-2-yl (3S)-3-{[4-(aminomethyl)-3-methoxybenzyl]carbamoyl}-4-[N^2-(2-benzyl-2-azaspiro[4.5]dec-8-yl)-N^2,N^6,N^6-trimethyl-D-lysyl]piperazine-1-carboxylate] — 2.9-fold lower, 1 nM
- O=C(NCc1cccs1)[C@@H]1CN(C(=O)Oc2ccccc2Cl)CCN1C(=O)[C@@H](CCCCN1CCCCC1)NC1CCC2(CC1)CCN(Cc1ccccc1)C2 (stereo partly drawn) [Example 88, 2-chlorophenyl (3S)-4-[N-(2-benzyl-2-azaspiro[4.5]dec-8-yl)-6-piperidin-1-yl-D-norleucyl]-3-[(thiophen-2-ylmethyl)carbamoyl]piperazine-1-carboxylate] — 3.2-fold lower, 0.9 nM
- COc1cc(CNC(=O)[C@@H]2CN(C(=O)Oc3ccc4ccccc4c3Cl)CCN2C(=O)[C@H](N)CCCCN(C)C)ccc1CN [Example 89, 1-chloronaphthalen-2-yl (3S)-3-{[4-(aminomethyl)-3-methoxybenzyl]carbamoyl}-4-(N^6,N^6-dimethyl-D-lysyl)piperazine-1-carboxylate] — 1.7-fold lower, 1.7 nM
- CN(C)CCCC[C@@H](NC1CCC2(CC1)CCN(Cc1ccccc1)C2)C(=O)N1CCN(C(=O)Oc2ccccc2Cl)C[C@H]1C(=O)NCc1cccs1 (stereo partly drawn) [Example 90, 2-chlorophenyl (3S)-4-[N^2-(2-benzyl-2-azaspiro[4.5]dec-8-yl)-N^6,N^6-dimethyl-D-lysyl]-3-[(thiophen-2-ylmethyl)carbamoyl]piperazine-1-carboxylate] — 4.1-fold lower, 0.7 nM
- CN(C)CCCC[C@@H](NC1CCC2(CC1)CCN(Cc1ccccc1)C2)C(=O)N1CCN(C(=O)CC2CCCC2)C[C@H]1C(=O)NCc1cccs1 (stereo partly drawn) [Example 93, (2S)-1-[N^2-(2-benzyl-2-azaspiro[4.5]dec-8-yl)-N^6,N^6-dimethyl-D-lysyl]-4-(cyclopentylacetyl)-N-(thiophen-2-ylmethyl)piperazine-2-carboxamide] — 8.1-fold higher, 23.5 nM
- Cc1ccc(OC(=O)N2CCN(C(=O)[C@@H](CC3CCCCC3)NC3CCCCC3)[C@H](C(=O)NCc3cccs3)C2)c(Cl)c1C [Example 94, 2-chloro-3,4-dimethylphenyl (3S)-4-(N,3-dicyclohexyl-D-alanyl)-3-[(thiophen-2-ylmethyl)carbamoyl]piperazine-1-carboxylate] — 2.6-fold higher, 7.5 nM
- O=C(NCc1cccs1)[C@@H]1CN(C(=O)Oc2ccccc2Cl)CCN1C(=O)[C@@H](CCCCN1CCOCC1)NC1CCC2(CC1)CCN(Cc1ccccc1)C2 (stereo partly drawn) [Example 95, 2-chlorophenyl (3S)-4-[N-(2-benzyl-2-azaspiro[4.5]dec-8-yl)-6-morpholin-4-yl-D-norleucyl]-3-[(thiophen-2-ylmethyl)carbamoyl]piperazine-1-carboxylate] — 1.6-fold lower, 1.8 nM
- CN(C)CCCC[C@H](C(=O)N1CCN(C(=O)Cc2cccc3c2CCNC3)C[C@H]1C(=O)NCc1cccs1)N(C)C1CCC2(CC1)CCN(Cc1ccccc1)C2 (stereo partly drawn) [Example 96, (2S)-1-[N^2-(2-benzyl-2-azaspiro[4.5]dec-8-yl)-N^2,N^6,N^6-trimethyl-D-lysyl]-4-(1,2,3,4-tetrahydroisoquinolin-5-ylacetyl)-N-(thiophen-2-ylmethyl)piperazine-2-carboxamide] — 4.1-fold higher, 11.9 nM
- O=C(NCc1cccs1)[C@@H]1CN(C(=O)Oc2ccccc2Cl)CCN1C(=O)[C@@H](CCCCN1CCCCC1)NC1CCCCC1 [Example 97, 2-chlorophenyl (3S)-4-(N-cyclohexyl-6-piperidin-1-yl-D-norleucyl)-3-[(thiophen-2-ylmethyl)carbamoyl]piperazine-1-carboxylate] — 4.1-fold lower, 0.7 nM
